In US7553864B2, “Compounds for the treatment of inflammatory disorders and microbial diseases” (Schering Corporation, priority 2005, dated 2009):

Test system: LpxC enzyme
Assay: LpxC enzyme assay (RapidFire high-throughput mass spectrometry)
Type: biochemical
Experimental: The standard LpxC assay consists of 0.2 nM LpxC enzyme, 1.0 μM UDP-3-O—(R-3-hydroxymyristoyl)-N-acetylglucosamine, and test compound, in assay buffer and 2% DMSO. Assay buffer is comprised of 25 mM HEPES, pH 7.3, 150 mM NaCl, 2.0 mM DTT, and 0.01% BSA. The enzyme reaction is carried out in a 96-well assay plate, in a final volume of 102 μL. Solutions of test compounds are prepared in 100% DMSO. Reaction additions, in order, are (1) 2.0 μL compound solution, (2) 80 μL of assay buffer, (3) 10 μL of 10 μM UDP-3-O—(R-3-hydroxymyristoyl)-N-acetylglucosamine (in assay buffer) and, (4) 10 μL of LpxC enzyme (20 nM in assay buffer) to initiate the reaction. In positive control reactions, addition (1) has 2.0 μL of 100% DMSO (without compound); these reactions are used as the total signal (TSB) value. Reactions are incubated at room temperature for 60 minutes when 10 μL of 1 N HCl is added to stop the reaction. The plate is shaken by hand for 10 seconds to ensure complete quenching. Assay plates are sealed with foil tape, and stored at −80° C. for 24-48 hr prior to analysis.
The concentrations of substrate and product in the reaction mixtures are determined with BioTrove's proprietary RapidFire™ high-throughput mass spectrometry (HTMS). Assay mixtures are partially purified with reverse phase chromatography, where they are washed with water containing 5 mM ammonium formate and eluted onto the mass spectrometer in 80% acetonitrile, 20% water, and 5 mM ammonium formate. The mass spectrometry peak areas of the substrate and product are measured to determine the concentration of these analytes. The assay signal is the percentage of substrate that is converted to product. Percent inhibition, % I, in test samples is determined from the following equation: […]

[1] = concentration 0.10 (unit not given)
[2] = concentration 0.20 (unit not given)
[3] = concentration 0.39 (unit not given)
[4] = concentration 0.78 (unit not given)
[5] = concentration 1.56 (unit not given)
[6] = concentration 3.13 (unit not given)
[7] = concentration 6.25 (unit not given)
[8] = concentration 12.50 (unit not given)
[9] = concentration 25 (unit not given)
[10] = concentration 50 (unit not given)

| Compound | LpxC enzyme assay rating (% inhibition at indicated concentrations) [1] | LpxC enzyme assay rating (% inhibition at indicated concentrations) [2] | LpxC enzyme assay rating (% inhibition at indicated concentrations) [3] | LpxC enzyme assay rating (% inhibition at indicated concentrations) [4] | LpxC enzyme assay rating (% inhibition at indicated concentrations) [5] | LpxC enzyme assay rating (% inhibition at indicated concentrations) [6] | LpxC enzyme assay rating (% inhibition at indicated concentrations) [7] | LpxC enzyme assay rating (% inhibition at indicated concentrations) [8] | LpxC enzyme assay rating (% inhibition at indicated concentrations) [9] | LpxC enzyme assay rating (% inhibition at indicated concentrations) [10] |
| --- | --- | --- | --- | --- | --- | --- | --- | --- | --- | --- |
| CCC(C)c1ccc(NC(=O)[C@H](O)[C@@H](O)C(=O)NC)cc1 (some centres unmarked) [Compound 34] | C (less than 10% inhibition) | B (10-30% inhibition) | C (less than 10% inhibition) | B (10-30% inhibition) | B (10-30% inhibition) | C (less than 10% inhibition) | B (10-30% inhibition) | C (less than 10% inhibition) | B (10-30% inhibition) | B (10-30% inhibition) |
| CNC(=O)[C@H](O)[C@@H](O)C(=O)Nc1ccc(-c2ccc(C(F)(F)F)cc2)cc1 [Compound 28] | C (less than 10% inhibition) | C (less than 10% inhibition) | C (less than 10% inhibition) | C (less than 10% inhibition) | C (less than 10% inhibition) | C (less than 10% inhibition) | C (less than 10% inhibition) | B (10-30% inhibition) | C (less than 10% inhibition) | C (less than 10% inhibition) |
| CCCc1ccc(NC(=O)[C@H](O)[C@@H](O)C(=O)N2CCCC2)cc1 [Compound 67] | B (10-30% inhibition) | B (10-30% inhibition) | B (10-30% inhibition) | C (less than 10% inhibition) | C (less than 10% inhibition) | C (less than 10% inhibition) | B (10-30% inhibition) | C (less than 10% inhibition) | B (10-30% inhibition) | B (10-30% inhibition) |
| CNC(=O)[C@H](O)[C@@H](O)C(=O)Nc1ccc(OCCN(C)C)cc1 [Compound 39] | C (less than 10% inhibition) | C (less than 10% inhibition) | C (less than 10% inhibition) | B (10-30% inhibition) | C (less than 10% inhibition) | B (10-30% inhibition) | B (10-30% inhibition) | C (less than 10% inhibition) | C (less than 10% inhibition) | B (10-30% inhibition) |
| CCCc1ccc(NC(=O)[C@H](O)[C@@H](O)C(=O)NC)cc1 [Compound 33] | C (less than 10% inhibition) | C (less than 10% inhibition) | C (less than 10% inhibition) | C (less than 10% inhibition) | B (10-30% inhibition) | B (10-30% inhibition) | B (10-30% inhibition) | C (less than 10% inhibition) | C (less than 10% inhibition) | C (less than 10% inhibition) |
| CNC(=O)[C@H](O)[C@@H](O)C(=O)n1ccc2cc(C#Cc3ccccc3)ccc21 [Compound 26] | C (less than 10% inhibition) | C (less than 10% inhibition) | C (less than 10% inhibition) | C (less than 10% inhibition) | C (less than 10% inhibition) | C (less than 10% inhibition) | C (less than 10% inhibition) | B (10-30% inhibition) | C (less than 10% inhibition) | B (10-30% inhibition) |
| CN(C)C(=O)[C@H](O)[C@@H](O)C(=O)Nc1ccc(-c2cc[nH]n2)cc1 [Compound 59] | B (10-30% inhibition) | C (less than 10% inhibition) | B (10-30% inhibition) | C (less than 10% inhibition) | C (less than 10% inhibition) | C (less than 10% inhibition) | C (less than 10% inhibition) | C (less than 10% inhibition) | B (10-30% inhibition) | C (less than 10% inhibition) |
| CNC(=O)[C@H](O)[C@@H](O)C(=O)N1CCC(c2ccc3ccccc3c2)CC1 [Compound 36] | C (less than 10% inhibition) | C (less than 10% inhibition) | C (less than 10% inhibition) | C (less than 10% inhibition) | C (less than 10% inhibition) | C (less than 10% inhibition) | C (less than 10% inhibition) | C (less than 10% inhibition) | C (less than 10% inhibition) | C (less than 10% inhibition) |
| C[C@H](O)[C@@H](NC(=O)[C@H](O)[C@@H](O)C(=O)N(C)C)C(=O)Nc1ccc(C#Cc2ccccc2)cc1 [Compound 77] | C (less than 10% inhibition) | C (less than 10% inhibition) | C (less than 10% inhibition) | C (less than 10% inhibition) | C (less than 10% inhibition) | C (less than 10% inhibition) | C (less than 10% inhibition) | B (10-30% inhibition) | A (greater than 30% inhibition) | – |
